From US12281122B1, “PI3K inhibitors” (Cogent Biosciences, Inc., priority 2023, dated 2025) come the findings set out here.

The test system of test [1] is T47D (PI3Kα-H1047R) cell line. As to the kind of experiment: HTRF phospho-AKT(S473) cell assay in T47D cells. Type of test: cell-based, human. The method, boiled down:
(§1)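 T47D (PI3Kα-H1047R; RPMI, 10% FBS, insulin) and SKBR3 (wild-type PI3Kα; McCoy's 5A, 10% FBS) cells treated 2 h at 37 °C with 12-point 1:3 dilutions, top 5 μM and 10 μM respectively, ≤0.5% DMSO. SKBR3 stimulated with 70 ng/ml PDGF-BB for the last 15 min; lysate pAKT(S473) by HTRF, IC50 from curves.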
(In general: Time-resolved FRET reads energy transfer from a long-lived donor to a nearby acceptor.)

In test [2] the test system is SKBR3 (PI3Kα-Wild Type) cell line. As to the kind of experiment: HTRF phospho-AKT(S473) cell assay in SKBR3 cells. In kind it is cell-based, human. The method, boiled down: as §1
[3] abbreviates: Homo sapiens; HTRF phospho-AKT(S473), T47D (PI3Kα-H1047R) cells, 2 hours compound incubation.
The mark [4] stands for this setting: Homo sapiens, SK-BR-3; HTRF phospho-AKT(S473), SKBR3 (PI3Kα-Wild Type) cells, 2 hours compound incubation, PDGF-BB stimulated.
The mark [5] stands for this setting: Homo sapiens; T47D (PI3Kα-H1047R) cells, HTRF phospho-AKT(S473), 2 hours compound incubation.
Where [6] appears, read: Homo sapiens, SK-BR-3; SKBR3 (PI3Kα-Wild Type) cells, HTRF phospho-AKT(S473), 2 hours compound incubation, PDGF-BB stimulated.

Usually IC50 stands for the point on the concentration scale where inhibition reaches its midpoint.

For `Cc1cc([C@@H](C)Nc2ccc(Cl)nc2C(=O)NS(C)(=O)=O)c2nc(N3CCC(c4nn(C(F)F)cc4F)CC3)n(C)c(=O)c2c1` [Compound 463, (R)-6-chloro-3-((1-(2-(4-(1-(difluoromethyl)-4-fluoro-1H-pyrazol-3-yl)piperidin-1-yl)-3,6-dimethyl-4-oxo-3,4-dihydroquinazolin-8-yl)ethyl)amino)-N-(methylsulfonyl) picolinamide], the values for the IC50 in test [1] (setting [3]) and in test [2] (setting [4]) were 250 to 500 nM and at least 5000 nM, respectively.

Regarding `Cc1cc([C@@H](C)Nc2ccc(Cl)nc2C(=O)NS(C)(=O)=O)c2nc(N3C[C@@H]4[C@H](C3)[C@H]4c3cc4n(n3)CCO4)n(C)c(=O)c2c1` [Compound 520, 6-chloro-3-(((R)-1-(2-((1R,5S,6R)-6-(2,3-dihydropyrazolo[5,1-b]oxazol-6-yl)-3-azabicyclo[3.1.0]hexan-3-yl)-3,6-dimethyl-4-oxo-3,4-dihydroquinazolin-8-yl)ethyl)amino)-N-(methylsulfonyl) picolinamide], the values for the IC50 in test [1] (setting [3]) and in test [2] (setting [4]) were below 250 nM and 1000 to 5000 nM, respectively.

In the case of `Cc1cc([C@@H](C)Nc2ccc(Cl)nc2C(=O)NS(C)(=O)=O)c2nc(N3CCC(c4c(C)n[nH]c4C)CC3)n(C)c(=O)c2c1` [Compound 232, (R)-6-chloro-3-((1-(2-(4-(3,5-dimethyl-1H-pyrazol-4-yl)piperidin-1-yl)-3,6-dimethyl-4-oxo-3,4-dihydroquinazolin-8-yl)ethyl)amino)-N-(methylsulfonyl) picolinamide], the IC50 is below 250 nM in test [1] (setting [5]) and 1000 to 5000 nM in test [2] (setting [6]).

Regarding `COc1cc(N2CCN(c3nc4c([C@@H](C)Nc5ccc(Cl)nc5C(=O)NS(C)(=O)=O)cc(C)cc4c(=O)n3C)CC2)ccn1` [Compound 554, (R)-6-chloro-3-((1-(2-(4-(2-methoxypyridin-4-yl)piperazin-1-yl)-3,6-dimethyl-4-oxo-3,4-dihydroquinazolin-8-yl)ethyl)amino)-N-(methylsulfonyl) picolinamide], the IC50 in test [1] (setting [3]) was below 250 nM; in test [2] (setting [4]) it was 1000 to 5000 nM.

`Cc1cc([C@@H](C)Nc2ccc(Cl)nc2C(=O)NS(C)(=O)=O)c2nc([C@@H]3CCCN(c4cccnc4)C3)n(C)c(=O)c2c1` (relative stereo) [Compound 211, 6-chloro-3-(((R)-1-(3,6-dimethyl-4-oxo-2-((R*)-1-(pyridin-3-yl)piperidin-3-yl)-3,4-dihydroquinazolin-8-yl)ethyl)amino)-N-(methylsulfonyl) picolinamide]: the IC50 was below 250 nM in test [1] (setting [5]) and 1000 to 5000 nM in test [2] (setting [6]).

As for `Cc1cc([C@@H](C)Nc2ccc(Cl)nc2C(=O)NS(C)(=O)=O)c2nc(N3CCC[C@H](Oc4cnc(C)cn4)C3)n(C)c(=O)c2c1` [Compound 383, 6-chloro-3-(((R)-1-(3,6-dimethyl-2-((S)-3-((5-methylpyrazin-2-yl)oxy)piperidin-1-yl)-4-oxo-3,4-dihydroquinazolin-8-yl)ethyl)amino)-N-(methylsulfonyl) picolinamide], the IC50 in test [1] (setting [5]) is 250 to 500 nM; in test [2] (setting [6]), at least 5000 nM.

With `Cc1cc([C@@H](C)Nc2ccc(Cl)nc2C(=O)NS(C)(=O)=O)c2nc(N3C[C@@H]4[C@H](C3)[C@H]4c3ccc(C)nc3)n(C)c(=O)c2c1` [Compound 449, 6-chloro-3-(((R)-1-(3,6-dimethyl-2-((1R,5S,6S)-6-(6-methylpyridin-3-yl)-3-azabicyclo[3.1.0]hexan-3-yl)-4-oxo-3,4-dihydroquinazolin-8-yl)ethyl)amino)-N-(methylsulfonyl) picolinamide], the IC50 is 250 to 500 nM in test [1] (setting [3]) and at least 5000 nM in test [2] (setting [4]).

Turning to `Cc1cc([C@@H](C)Nc2ccc(Cl)nc2C(=O)NS(C)(=O)=O)c2nc(N3CCN(c4ccnc(C(F)(F)F)n4)CC3)n(C)c(=O)c2c1` [Compound 589, (R)-6-chloro-3-((1-(3,6-dimethyl-4-oxo-2-(4-(2-(trifluoromethyl)pyrimidin-4-yl)piperazin-1-yl)-3,4-dihydroquinazolin-8-yl)ethyl)amino)-N-(methylsulfonyl) picolinamide], the figures for the IC50 in test [1] (setting [3]) and in test [2] (setting [4]) were 250 to 500 nM and at least 5000 nM, respectively.

Turning to `Cc1cc([C@@H](C)Nc2ccc(Cl)nc2C(=O)NS(C)(=O)=O)c2nc(N3CCC(c4ccc[nH]c4=O)CC3)n(C)c(=O)c2c1` [Compound 706, (R)-6-chloro-3-((1-(3,6-dimethyl-4-oxo-2-(4-(2-oxo-1,2-dihydropyridin-3-yl)piperidin-1-yl)-3,4-dihydroquinazolin-8-yl)ethyl)amino)-N-(methylsulfonyl) picolinamide], the IC50 in test [1] (setting [3]) is 500 to 1000 nM; in test [2] (setting [4]), at least 5000 nM.

As to `Cc1cc([C@@H](C)Nc2ccc(Cl)nc2C(=O)NS(C)(=O)=O)c2nc(N3CCC(c4nnc(C)o4)CC3)n(C)c(=O)c2c1` [Compound 557, (R)-6-chloro-3-((1-(3,6-dimethyl-2-(4-(5-methyl-1,3,4-oxadiazol-2-yl)piperidin-1-yl)-4-oxo-3,4-dihydroquinazolin-8-yl)ethyl)amino)-N-(methylsulfonyl) picolinamide], the IC50 in test [1] (setting [3]) was 250 to 500 nM; in test [2] (setting [4]) it was 1000 to 5000 nM.

For the molecule `Cc1cnc(C2CCN(c3nc4c([C@@H](C)Nc5ccc(Cl)nc5C(=O)NS(C)(=O)=O)cc(Cl)cc4c(=O)n3C)CC2)cn1` [Compound 442, (R)-6-chloro-3-((1-(6-chloro-3-methyl-2-(4-(5-methylpyrazin-2-yl)piperidin-1-yl)-4-oxo-3,4-dihydroquinazolin-8-yl)ethyl)amino)-N-(methylsulfonyl) picolinamide], the IC50 in test [1] (setting [3]) is below 250 nM; in test [2] (setting [4]), 1000 to 5000 nM.

In the case of `Cc1cc([C@@H](C)Nc2ccc(Cl)nc2C(=O)NS(C)(=O)=O)c2nc(N3CCC(Oc4ccn(C)n4)CC3)n(C)c(=O)c2c1` [Compound 265, (R)-6-chloro-3-((1-(3,6-dimethyl-2-(4-((1-methyl-1H-pyrazol-3-yl)oxy)piperidin-1-yl)-4-oxo-3,4-dihydroquinazolin-8-yl)ethyl)amino)-N-(methylsulfonyl) picolinamide], the IC50 was below 250 nM in test [1] (setting [5]) and 1000 to 5000 nM in test [2] (setting [6]).

Consider `Cc1cc([C@@H](C)Nc2ccc(Cl)nc2C(=O)NS(C)(=O)=O)c2nc(N3CCC[C@@H](c4cnc(C)cn4)C3)n(C)c(=O)c2c1` (relative stereo) [Compound 586, 6-chloro-3-(((R)-1-(3,6-dimethyl-2-((R*)-3-(5-methylpyrazin-2-yl)piperidin-1-yl)-4-oxo-3,4-dihydroquinazolin-8-yl)ethyl)amino)-N-(methylsulfonyl) picolinamide], for which the results for the IC50 in test [1] (setting [3]) and in test [2] (setting [4]) were 250 to 500 nM and at least 5000 nM, respectively.

For `Cc1cc([C@@H](C)Nc2ccc(Cl)nc2C(=O)NS(C)(=O)=O)c2nc(N3C[C@@H]4C[C@H]3C[C@H]4c3nn(C)cc3F)n(C)c(=O)c2c1` (relative stereo) [Compound 761, 6-chloro-3-(((R)-1-(2-((1R*,4S*,5S*)-5-(4-fluoro-1-methyl-1H-pyrazol-3-yl)-2-azabicyclo[2.2.1]heptan-2-yl)-3,6-dimethyl-4-oxo-3,4-dihydroquinazolin-8-yl)ethyl)amino)-N-(methylsulfonyl) picolinamide], the IC50 was in the range of 250 to 500 nM in test [1] (setting [3]) and 1000 to 5000 nM in test [2] (setting [4]).

On to `Cc1cc([C@@H](C)Nc2ccc(Cl)nc2C(=O)NS(C)(=O)=O)c2nc(N3CCC[C@@H](c4cc[nH]n4)C3)n(C)c(=O)c2c1` (relative stereo) [Compound 218, 3-(((R)-1-(2-((R*)-3-(1H-pyrazol-3-yl)piperidin-1-yl)-3,6-dimethyl-4-oxo-3,4-dihydroquinazolin-8-yl)ethyl)amino)-6-chloro-N-(methylsulfonyl) picolinamide], for which the IC50 was below 250 nM in test [1] (setting [5]) and 1000 to 5000 nM in test [2] (setting [6]).

For the molecule `Cc1cc([C@@H](C)Nc2ccc(Cl)nc2C(=O)NS(C)(=O)=O)c2nc(N3C[C@@H]4[C@H](C3)[C@H]4n3ncc(F)c3C)n(C)c(=O)c2c1` [Compound 632, 6-chloro-3-(((R)-1-(2-((1R,5S,6S)-6-(4-fluoro-5-methyl-1H-pyrazol-1-yl)-3-azabicyclo[3.1.0]hexan-3-yl)-3,6-dimethyl-4-oxo-3,4-dihydroquinazolin-8-yl)ethyl)amino)-N-(methylsulfonyl) picolinamide], the IC50 in test [1] (setting [3]) was 250 to 500 nM; in test [2] (setting [4]), 1000 to 5000 nM.

Consider `Cc1cc([C@@H](C)Nc2ccc(Cl)nc2C(=O)NS(C)(=O)=O)c2nc(N3CCC[C@@H](c4ccc(C)nc4)C3)n(C)c(=O)c2c1` (mixture of isomers) [Compound 215, 6-chloro-3-(((R)-1-(3,6-dimethyl-2-((RS)-3-(6-methylpyridin-3-yl)piperidin-1-yl)-4-oxo-3,4-dihydroquinazolin-8-yl)ethyl)amino)-N-(methylsulfonyl) picolinamide], for which the IC50 in test [1] (setting [5]) is below 250 nM; in test [2] (setting [6]) it was 1000 to 5000 nM.

As to `Cc1cc([C@@H](C)Nc2ccc(Cl)nc2C(=O)NS(C)(=O)=O)c2nc(N3C[C@@H]4[C@H](C3)[C@H]4c3cc4ccccn4n3)n(C)c(=O)c2c1` [Compound 473], the IC50 in test [1] (setting [3]) was 250 to 500 nM; in test [2] (setting [4]) it was at least 5000 nM.

With `Cc1cc([C@@H](C)Nc2ccc(Cl)nc2C(=O)NS(C)(=O)=O)c2nc(N3C[C@@H]4[C@H](C3)[C@H]4c3cnc(C(F)(F)F)nc3)n(C)c(=O)c2c1` [Compound 484, 6-chloro-3-(((R)-1-(3,6-dimethyl-4-oxo-2-((1R,5S,6S)-6-(2-(trifluoromethyl)pyrimidin-5-yl)-3-azabicyclo[3.1.0]hexan-3-yl)-3,4-dihydroquinazolin-8-yl)ethyl)amino)-N-(methylsulfonyl) picolinamide], the results for the IC50 in test [1] (setting [3]) and in test [2] (setting [4]) were 250 to 500 nM and 1000 to 5000 nM, respectively.
